In US6897203B2, “Polysaccharidic esters of retinoic acid” (priority 2001, dated 2005):

Tests used:
[1] = system: P19 cells, embryonal pluripotent murine teratocarcinoma cell line; details: cultured P19 cells; McBurney et al., Nature 1982; cited from earlier work
[2] = system: P19 cells, embryonal pluripotent murine teratocarcinoma cell line; details: after 4 days of treatment, RT-PCR and RNase protection; for prodynorphin gene expression: P19 indifferentiated cells in suspension; for gene induction of the GATA-4 and Nkx-2.5 genes: P19 indifferentiated cells, follows the prodynorphin increase
Procedure: The experiments were carried out on P19 cells, embryonal pluripotent murine teratocarcinoma cell line (European Collection of Cell Cultures, UK). These cultured cells indifferentiately proliferate but can be transformed into several cell phenotypes in the presence of differentiating agents, thus selectively summarising the first molecular events that take place during the embryonal growth. […] P19 cells are cultivated in a suspension in alpha-mem medium in 60 mm Petri dishes, either in the absence or in the presence of the hyaluronan esters of the invention. After 4 days of treatment, the total RNA was extracted according to the procedure described by Chomczynsky and Sacchi (Chomczynsky, P., N. Sacchi, Anal. Biochem. 162: 156-159, 1987) and the expression of specific transcripts was evaluated by RT-PCR and RNase protection.

| Compound | differentiation phenotype of P19 cells in the presence of a differentiating agent [1] | prodynorphin gene expression [2] | gene induction of the GATA-4 and Nkx-2.5 genes [2] |
| --- | --- | --- | --- |
| CC(C=CC1=C(C)CCCC1(C)C)=CC=CC(C)=CC(=O)O [retinoic acid, 3,7-dimethyl-9-(2,6,6-trimethyl-1-cyclohexene-1-yl)-2,4,6,8-nonatetraenoic acid] | turn into neuronal cells |  |  |
| C[S+](C)[O-] [DMSO, dimethylsulphoxide] | turn into myocardial cells supplied with spontaneous contractile activity |  |  |
| Hyaluronan Ester with Trans-Retinoic Acid [Example 3] |  | marked increase | gene induction |
| Ester of Hyaluronan with Trans-Retinoic Acid [Example 4] |  | marked increase | gene induction |
